Where two headings read alike, the source gives them in different places.
How the values were obtained:
[1] = test system: Long-Evans rats or squirrel-monkeys; test: Antipsychotic lever-push shock avoidance protocol (SIDR); type: in vivo; conditions: Rattus norvegicus; shock avoidance lever pushing; read-out: SIDR ED50
Description: Representative compounds of the invention (identified in the Examples) were also tested for antipsychotic activity according to the following protocol (SIDR). […] Mature male Long-Evans rats or squirrel-monkeys are conditioned to push a lever in order to avoid a painful electric footshock. If the animal fails to push the lever, he receives a shock every ten seconds until the lever is pushed. Shocks can be terminated by pushing the lever. Thereafter, as long as the lever is pushed at least once every 20 seconds, there will be no shock. Each animal acts as its own control; one weekly session is used to establish baseline behavior and another session later in the week is used as a drug session. Once patterns of avoidance are established, the effects of standard and unknown compounds are studied. All events are electronically programmed and the response to these events counted or used as feedback to the program.

[2] = test system: Swiss-Webster male mice; test: Mouse Activity and Screen Test (MAST): inhibition of spontaneous locomotion (LI); type: in vivo
Description: (§1) Treatments are administered intraperitoneally one hour prior to testing. […] Compounds are dissolved or suspended in 0.2% Methocel. Control animals are injected with Methocel.
Immediately following the screen test, the final phase of testing is initiated by placing each group of three mice in one actophotometer (Life Sciences, 22, 1067-1076, 1978). The actophotometer consists of a cylindrical chamber whose center is occupied by another cylinder which contains the illumination for six photocells located on the perimeter of the chamber. Six light-beam interruptions equal one count. Locomotor activity is recorded by computer at ten minute intervals for 60 minutes. […]

[3] = test system: conscious rat; test: Antihypertensive evaluation (AHP3): aortic blood pressure and heart rate; type: in vivo; conditions: for minimal effective dose: read-out: AHP3 BP LAD
From the text: […] EVALUATION (AHP3)
This test procedure is described in the following paragraphs.
A Method for the Direct Monitoring of Aortic Blood Pressure and Heart Rate from Conscious Rats
The continuous monitoring of pulsatile blood pressure (BP) from unrestrained conscious rats surgically equipped with polyethylene cannulas was accomplished by means of a computer assisted data capture scheme (CADCS). The absic elements of the methodology are the cannulation procedure and the CADCS.
Cannulation Procedure: Rats were anesthetized with Telazol (1:1 tiletamine HCI and zolazepam HCI); 20-40 mg/kg IM and the descending aorta exposed via a midline incision. Cannulas fabricated from polyethylene tubing were inserted into the aorta via an undersized puncture hole below the renal arteries. The puncture hole was made by a 23 G disposable needle with a section of the aorta clamped off above and below the puncture site. The cannulas, consisting of a PE100 (0.86 mm ID) body and a PE50 (0.58 mm ID) tip, were attached to a trocar, inserted through the psoas muscle, and passed subcutaneously along the midline of the back and externalized between the ears. The cannulas were anchored to the psoas muscle and between the scalulae (3-0 green braided suture). The midline incision was closed in two steps (muscle first, skin second) using continuous over-and over sutures (4-0 chronic). Each rat was then given penicillin 30,000 units subcutaneously (Penicillin G Procaine Sterile Suspension).
The rats were fitted with a harness-spring-swivel assembly designed to protect the cannula and to provide the rat relative freedom of movement. The harnesses were fabricated from nylon hook and loop tape cemented to a metal plate to which spring wires (18-8 stainless steel), were attached to brass swivels. Each polyethylene cannula was channeled through a spring and connected through a swivel to a pressure transducer (Model P23Gb; Statham Instruments; Hato Rey, Puerto Rico) and an infusion pump (Sage model 234-7; Orion Research, Cambridge, Ma) by means of PE100 tubing. While on test, each rat received a continuous slow infusion of heparinized saline solution (approximately 400 I or 40 units of heparin per 24 hour period) to prevent clot formation. Additional "flushes" of the cannula with heparinized saline were carried out when the aortic pulse pressure (systolic minus diastolic) was less than 25 mm Hg.
CADCS: The pulsatile blood pressure and heart rate of each of 32 rats was monitored every minute by means of two in-laboratory microcomputers communicating directly with a data concentrator computer. The data were first stored on the data concentrator disk and then transferred to a magnetic tape for analysis and report generation by the main research computer. The overall scheme involved modulating the primary signal from the pressure transducer, generating the primary data set of the one-minute values for systolic, diastolic, and mean blood pressures and heart rate by the in-lab microcomputer and the storage, analysis, and report generation by the main research computer.
The transducers were connected to analog signal conditioning modules. The modules providing a regulated excitation voltage for the transducers, amplification as required to interface the microprocessors and an active low pass filter to compensate for the pressure wave form distortion produced by the flexible, fluid filled, narrow cannula.
The microcomputers (one for each of two groups of 16 rats) were connected to the input components through the module interface units, an analog-to-digital converter for the pressure wave form signal and the digital inputs for the dose and event marker switches. The microcomputer controlled the sequential acquisition of data from the modular interface units through an internal synchronous time-of-day clock/ time base generator. […]

[4] = test system: rat heart; test: Coronary blood flow (PCS2A): isolated perfused heart
Description: CORONARY BLOOD FLOW (PCS2A)
Male rats (400-600 gms) are pretreated with Na haparin 2000 units and anesthetized with Na pentobarbital (50 mg/kg) administered intraperitoneally. Once anesthetized, the rat heart is rapidly excised, the ascending aorta fitted to the aortic perfusion cannula, and […] with a ligature. The coronary arteries are perfused initially at a rate of about 15 ml/min for two to three minutes, afterwhich they are perfused at constant pressure of 70 mm Hg and temperature of 37°C. The electrocardiogram (ECG) is recorded using two platinum electrodes positioned at the base and apex of the left ventricle. A second heart is excised, cannulated, and perfused by the same method outlined above. Both hearts are tested in parallel. The standard physiological salt solution (PSS) is a modified Krebs-Hanseleit bicarbonate buffer of the following composition in mM concentration: NaCI, 127; NaHC03, 25; dextrose, 5.5; Na Pyruvate, 2.0: KCI, 4.7; MgS04, 1.1; KH 2P04, 1.2; CaCl2·2H2O, 2.5; CaNa2 EDTA, 0.05.
A 30-minute stabilization period is observed before starting the test protocol.
The microprocessor control system is a servo mechanism which permits coronary perfusion pressure (CPP) and drug concentration to be maintained constant independent of changes in coronary flow. The level at which CPP and drug concentration are maintained can be changed by commands communicated through the microprocessor keyboard. Dose-response curves are carried out by perfusing concentrated drug solution (DC) at rates proportional to total coronary flow (CFT). Drug concentrations are increased by proportionate increases in the rate of DC infusion over CFT via the microprocessor keyboard. The proportional flow rates for DC:CFT is about .0002:1 at the low end and .02: at the high end of the dose-response curve. Dose-response curves encompassing at least two log doses are carried out by preparing two DCs with a concentration difference of 1:100. Following the first dose range of two log doses, the DC are switched, proportional pumping rate adjusted, and the dose-response curve continued for another two log doses. The standard dose-response curve is carried out in one-half log dose increments starting at a subthreshold dose and ending at a dose which produces near maximal response in activity. Standard reference compounds are tested over the range of 10-^9 to 10-^6M.
Measurements are for heart rate (HR) and coronary flow (CF). Units are: HR, beats/minute (bpm) and CF, milliliters/minute (ml/min). HR is calculated from the ECG strip chart recording and CF is calculated by recording analog outputs from pumps 1 and 2. Outputs from pump #1 = CFT and the output from pump #2 = CF for heart B (CFg). CF for heart A (CFA) is calculated (CFT - CFB = CFA).
Using the above technique, the effects of the compound of Examples 1 and 2 are as follows: […]

[5] = test system: Swiss-Webster male mice; test: Mouse Activity and Screen Test (MAST): screen test (ST); type: in vivo; conditions: for Inhibition of screen test failure: percent of mice falling off the screen; for MAST ST LAD: lowest dose at which an A rating (60-100%) is achieved, screen test, intraperitoneally
Description: as §1
The compounds are identified in the Examples.

[6] = 10 mg/kg intraperitoneally, one hour prior to testing; vs vehicle
[7] = 30 mg/kg intraperitoneally, one hour prior to testing; vs vehicle
[8] = 100 mg/kg intraperitoneally, one hour prior to testing; vs vehicle
[9] = Mus musculus, ip; read-out: MAST LI LAD
[10] = lowest dose tested at which a >10% reduction in blood pressure for four consecutive hours is achieved, conscious rat
[11] = coronary flow, isolated perfused rat heart, read-out: PCS2A CF ED50
[12] = heart rate, isolated perfused rat heart, read-out: PCS2A HR ED50

EC50 [4, 11] [nM] | Inhibition of screen test failure ([5]; 10 mg/kg intraperitoneally) [%] | Inhibition of screen test failure ([5]; 30 mg/kg intraperitoneally) [%] | Inhibition of screen test failure ([5]; 100 mg/kg intraperitoneally) [%] | MAST ST LAD [5] [mg/kg] | Compound | ED50 [1] [mg/kg] | Inhibition of mouse locomotor activity [2, 6] [%] | Inhibition of mouse locomotor activity [2, 7] [%] | Inhibition of mouse locomotor activity [2, 8] [%] | minimal effective dose [2, 9] [mg/kg] | Mμ.c. ↓ ([3]; 10 mg/kg, conscious rat, decrease in mean arterial blood pressure) [%] | HR ↑ ([3]; 10 mg/kg, conscious rat, heart rate increase) [%] | minimal effective dose [3, 10] [mg/kg] | EC50 [4, 12] [nM] | minimal effective dose ([2]; Mus musculus, ip, read-out: MAST LI LAD) [mg/kg] | minimal effective dose ([3]; Rattus norvegicus) [mg/kg] | EC50 ([4]; Rattus norvegicus, read-out: PCS2A CF ED50) [nM] | EC50 ([4]; Rattus norvegicus, read-out: PCS2A HR ED50) [nM]
30000 | 0 | 11 | 44 | >100 | OC[C@H]1O[C@@H](n2cnc3c(NCC(c4ccccc4)c4ccccc4)nc(Cl)nc32)[C@H](O)[C@@H]1O [Example 3, N^6-(2,2-Dipenylethyl)-2-chloroadenosine] | 9.6 | 56 | 85 | 92 | 10 | 15 | <20 | 10 | > 30000 |  |  |  | 
1000 | 0 | 11 | 22 | >100 | Nc1nc(NCC(c2ccccc2)c2ccccc2)c2ncn([C@@H]3O[C@H](CO)[C@@H](O)[C@H]3O)c2n1 [Example 4, N^6-(2,2-Diphenylethyl)-2-aminoadenosine] | 3.8 | 64 | 87 | 95 | 10 |  |  | 30 | > 100 |  |  |  | 
> 3000 |  |  |  | >100 | OC[C@H]1O[C@@H](n2cnc3c(NC(c4ccccc4)c4ccccc4)ncnc32)[C@H](O)[C@@H]1O [Example 5, N^6-Diphenylmethyladenosine, reference compound] | > 50 |  |  |  | 100 |  |  | > 10 | > 3000 |  |  |  | 
10 |  |  |  | >100 | OC[C@H]1O[C@@H](n2cnc3c(NCC(c4ccccc4)c4ccc(F)cc4)ncnc32)[C@H](O)[C@@H]1O (some centres unmarked) [Example 10, N^6-(2-(4-Fluorophenyl)-2-phenylethyl)adenosine] | 8.6 |  |  |  | 3 |  |  | 10 | 1400 |  |  |  | 
> 10000 |  |  |  | >100 | Nc1nc(NCC(c2ccccc2)c2ccc(F)cc2)c2ncn([C@@H]3O[C@H](CO)[C@@H](O)[C@H]3O)c2n1 (some centres unmarked) [Example 12, N^6-(2-(4-Fluorophenyl)-2-phenylethyl)-2-amino adenosine] |  |  |  |  | 30 |  |  | 10 | > 10000 |  |  |  | 
30 |  |  |  | 30 | COc1ccc(C(CNc2ncnc3c2ncn3[C@@H]2O[C@H](CO)[C@@H](O)[C@H]2O)c2ccccc2)cc1 (some centres unmarked) [Example 19, N^6-(2-(4-Methoxyphenyl)-2-phenylethyl)adenosine] |  |  |  |  | 10 |  |  | 10 | > 3000 |  |  |  | 
> 10000 |  |  |  | >100 | CC(CNc1nc(N)nc2c1ncn2[C@@H]1O[C@H](CO)[C@@H](O)[C@H]1O)(c1ccccc1)c1ccccc1 [Example 21, N'-(2,2-Diphenylpropyl)-2-aminoadenosine] |  |  |  |  | 30 |  |  | > 10 | > 10000 |  |  |  | 
> 1000 |  |  |  | 100 | OC[C@H]1O[C@@H](n2cnc3c(NCC(O)(c4ccccc4)c4ccccc4)ncnc32)[C@H](O)[C@@H]1O [Example 22, N^6-(2,2-Diphenyl-2-hydroxyethyl)adenosine] |  |  |  |  | 1 |  |  | 10 | 500 |  |  |  | 
> 3000 |  |  |  | >100 | Nc1nc(NCC(O)(c2ccccc2)c2ccccc2)c2ncn([C@@H]3O[C@H](CO)[C@@H](O)[C@H]3O)c2n1 [Example 23, N^6-(2,2-Diphenyl-2-hydroxyethyl)-2-aminoadenosine] |  |  |  |  | 3 |  |  | > 10 | ~1000 |  |  |  | 

Compound | EC50 [4, 11] [nM] | Inhibition of screen test failure ([5]; 10 mg/kg intraperitoneally) [%] | Inhibition of screen test failure ([5]; 30 mg/kg intraperitoneally) [%] | Inhibition of screen test failure ([5]; 100 mg/kg intraperitoneally) [%] | MAST ST LAD [5] [mg/kg] | ED50 [1] [mg/kg] | Inhibition of mouse locomotor activity [2, 6] [%] | Inhibition of mouse locomotor activity [2, 7] [%] | Inhibition of mouse locomotor activity [2, 8] [%] | minimal effective dose [2, 9] [mg/kg] | Mμ.c. ↓ ([3]; 10 mg/kg, conscious rat, decrease in mean arterial blood pressure) [%] | HR ↑ ([3]; 10 mg/kg, conscious rat, heart rate increase) [%] | minimal effective dose [3, 10] [mg/kg] | EC50 [4, 12] [nM] | minimal effective dose ([2]; Mus musculus, ip, read-out: MAST LI LAD) [mg/kg] | minimal effective dose ([3]; Rattus norvegicus) [mg/kg] | EC50 ([4]; Rattus norvegicus, read-out: PCS2A CF ED50) [nM] | EC50 ([4]; Rattus norvegicus, read-out: PCS2A HR ED50) [nM]
O=[N+]([O-])c1ccc(C(CNc2ncnc3c2ncn3[C@@H]2O[C@H](CO)[C@@H](O)[C@H]2O)c2ccc([N+](=O)[O-])cc2)cc1 [Example 20, N^6-(2,2-Di-(4-nitrophenyl)ethyl)adenosine] |  |  |  |  | >100 |  |  |  |  |  |  |  |  |  | 100 | > 10 | 300 | > 3000

Reference: EP0139358B1, “N6-substituted diarylalkyl adenosines, processes for their production and pharmaceutical compositions comprising the same” (priority 1983, dated 1985)
